Earlier results on two compounds are cited in article PMC10182713 (South African Journal of Botany, 2023).

This data set relates to multidrug-resistant TB. Particulars: ref Favela-Hernández et al. (2012); cited from earlier work.

Take `COc1cc(O)c2c(=O)c(OC)c(-c3ccc(O)cc3)oc2c1OC` [5,4-dihydroxy 3,7,8-trimethoxyflavone]: the “Activity against multidrug-resistant TB in words” value is “active”.
Consider `COc1cc(-c2oc3c(OC)c(OC)cc(O)c3c(=O)c2OC)ccc1O` [5,4-dihydroxy-3,7,8,3-tetramethoxyflavone], for which the “Activity against multidrug-resistant TB in words” value is “active”.
